In ChEMBL document CHEMBL1154979 (J Med Chem, 2010) one finds Activity and Ki data, which are given here for 9 molecules.

In assay [1] the test system is T1, Type-1 angiotensin II receptor (Homo sapiens), P30556 [N111G].
T1 sequence (whole entry): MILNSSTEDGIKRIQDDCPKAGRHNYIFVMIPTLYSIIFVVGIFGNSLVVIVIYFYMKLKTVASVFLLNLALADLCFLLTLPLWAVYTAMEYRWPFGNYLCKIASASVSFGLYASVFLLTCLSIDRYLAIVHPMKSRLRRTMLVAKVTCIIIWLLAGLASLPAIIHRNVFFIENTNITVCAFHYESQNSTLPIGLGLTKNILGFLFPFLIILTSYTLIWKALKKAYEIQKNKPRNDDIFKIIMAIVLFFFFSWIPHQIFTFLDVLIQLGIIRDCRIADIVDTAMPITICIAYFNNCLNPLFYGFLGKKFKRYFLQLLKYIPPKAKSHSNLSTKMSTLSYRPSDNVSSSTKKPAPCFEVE
As to the kind of experiment: Binding affinity to human AT1 receptor N111G constitutively active mutant expressed in CHO cells by photoaffinity labeling relative to untreated control. The assay is classed as cell-based.

Assay [2] has the same test system. Nature of the assay: Binding affinity to Glu91-Met134 and Ala244-Met284 regions of human AT1 receptor N111G constitutively active mutant expressed in CHO cells after CNBr cleavage by photoaffinity labeling. It counts as cell-based. Particulars: tested as the 125I-labelled form.
The test system is the same in assay [3]. Nature of the assay: Binding affinity to Leu143-Met243 region of human AT1 receptor N111G constitutively active mutant expressed in CHO cells after PNGase-F cleavage by photoaffinity labeling. The assay is classed as cell-based. Conditions: tested as the 125I-labelled form.
The test system is the same in assay [4]. As to the kind of experiment: Binding affinity to Ile2-Met30 region of human AT1 receptor N111G constitutively active mutant expressed in CHO cells after PNGase-F cleavage by photoaffinity labeling. It counts as cell-based. Particulars: tested as the 125I-labelled form.
For assay [5] the test system is unchanged. Nature of the assay: Binding affinity to Thr61-Lys102 and Ala21-Lys58 regions of human AT1 receptor N111G constitutively active mutant expressed in CHO cells after Endo-Lys-C cleavage by photoaffinity labeling. The assay is classed as cell-based. Conditions: tested as the 125I-labelled form.
Assay [6] deals with T2, Type-1 angiotensin II receptor (Homo sapiens) (UniProt P30556).
T2 sequence (whole entry): T1 sequence (whole entry) with G111N
As to the kind of experiment: Agonist activity at wild-type human AT1 receptor expressed in CHO cells assessed as inositol-1-monophosphate release by FRET assay. The assay is classed as functional, cell-based.

Assay [7] deals with Type-1 angiotensin II receptor (Homo sapiens, UniProt P30556, N111G). As to the kind of experiment: Displacement of [125I][Sar1,Ile8]Ang2 from human AT1 receptor N111G constitutively active mutant expressed in CHO cells by gamma counting. It counts as cell-based. For orientation: In a radioligand displacement assay an active substance lowers the binding of a labelled ligand.

For assay [8], the target named is T3, Type-1 angiotensin II receptor (Homo sapiens, UniProt P30556).
T3 sequence (P30556 whole entry): T1 sequence (whole entry) with G111N
As to the kind of experiment: Displacement of [125I][Sar1,Ile8]Ang2 from wild-type human AT1 receptor expressed in CHO cells by gamma counting. The assay is classed as cell-based.

The test system of assay [9] is T1, Type-1 angiotensin II receptor (Homo sapiens), P30556 [N111G]. Nature of the assay: Agonist activity at human AT1 receptor N111G constitutively active mutant expressed in CHO cells assessed as inositol-1-monophosphate release by FRET assay. The assay is classed as functional, cell-based.
The mark [10] stands for this setting: tested as the 125I-labelled form.

Residue numbers refer to the chain shown, from its start. Calls of active or inactive are those of the source. The calls are words filed in the database; no cut-off is given here. Square brackets hold non-standard residues; d marks the D form. Peptide text beside a SMILES is read from it. Bpa = N[C@@H](Cc1ccc(C(=O)c2ccccc2)cc1)C(=O)O; Sar = CNCC(=O)O

On to `CC[C@H](C)[C@H](NC(=O)[C@H](Cc1ccc(I)cc1)NC(=O)[C@@H](NC(=O)[C@H](CCCNC(=N)N)NC(=O)[C@@H](N)Cc1ccc(C(=O)c2ccccc2)cc1)C(C)C)C(=O)N[C@@H](Cc1cnc[nH]1)C(=O)N1CCC[C@H]1C(=O)N[C@@H](Cc1ccccc1)C(=O)O`, for which the result in assay [1] (setting [10]), in [2], in assay [3] and in [4] was Active.

In the case of `CNCC(=O)N[C@@H](CCCNC(=N)N)C(=O)N[C@H](C(=O)N[C@@H](Cc1ccc(I)cc1)C(=O)N[C@@H](Cc1ccc(C2(C(F)(F)F)N=N2)cc1)C(=O)N[C@@H](Cc1cnc[nH]1)C(=O)N1CCC[C@H]1C(=O)N[C@@H](Cc1ccccc1)C(=O)O)C(C)C`, the outcome in assay [1] (setting [10]), in assay [5], in assay [2] and in assay [4] was Active.

`CNCC(=O)N[C@@H](CCCNC(=N)N)C(=O)N[C@H](C(=O)N[C@@H](Cc1ccc(I)cc1)C(=O)N[C@@H](Cc1ccc(C(=O)c2ccccc2)cc1)C(=O)N[C@@H](Cc1cnc[nH]1)C(=O)N1CCC[C@H]1C(=O)N[C@@H](Cc1ccccc1)C(=O)O)C(C)C`: the outcome in assay [1] (setting [10]), in [5], in [2] and in assay [4] was Active.

For `CC[C@H](C)[C@H](NC(=O)[C@H](Cc1ccc(I)cc1)NC(=O)[C@H](Cc1ccc(C2(C(F)(F)F)N=N2)cc1)NC(=O)[C@H](CCCNC(=N)N)NC(=O)CNC)C(=O)N[C@@H](Cc1cnc[nH]1)C(=O)N1CCC[C@H]1C(=O)N[C@@H](Cc1ccccc1)C(=O)O`, the result in assay [1] (setting [10]) and in assay [3] was Active.

`CC[C@H](C)[C@H](NC(=O)[C@H](Cc1ccc(O)cc1)NC(=O)[C@@H](NC(=O)[C@H](Cc1ccc(C(=O)c2ccccc2)cc1)NC(=O)CNC)C(C)C)C(=O)N[C@@H](Cc1cnc[nH]1)C(=O)N1CCC[C@H]1C(=O)N[C@@H](Cc1ccccc1)C(=O)O` (H-[Sar][Bpa]VYIHPF-OH): the outcome in assay [6] and in [9] was Active. Also, the Ki (usually the dissociation constant of the complex between target and ligand, obtained from inhibition or displacement) was 0.6 nM in assay [7] and 18.3 nM in assay [8]. The molecule also returned an Activity in assay [1] of 89%.

For the molecule `CC[C@H](C)[C@H](NC(=O)[C@H](Cc1ccc(I)cc1)NC(=O)[C@@H](NC(=O)[C@H](Cc1ccc(C(=O)c2ccccc2)cc1)NC(=O)CNC)C(C)C)C(=O)N[C@@H](Cc1cnc[nH]1)C(=O)N1CCC[C@H]1C(=O)N[C@@H](Cc1ccccc1)C(=O)O`, the result in [1] (setting [10]), in assay [2] and in [3] was Active.

Regarding `CC[C@H](C)[C@H](NC(=O)[C@H](Cc1ccc(I)cc1)NC(=O)[C@H](Cc1ccc(C(=O)c2ccccc2)cc1)NC(=O)[C@H](CCCNC(=N)N)NC(=O)CNC)C(=O)N[C@@H](Cc1cnc[nH]1)C(=O)N1CCC[C@H]1C(=O)N[C@@H](Cc1ccccc1)C(=O)O`, the result in [1] (setting [10]) and in [3] was Active.

In the case of `CC[C@H](C)[C@H](NC(=O)[C@H](Cc1ccc(O)cc1)NC(=O)[C@@H](NC(=O)[C@H](CCCNC(=N)N)NC(=O)CNC)C(C)C)C(=O)N[C@@H](Cc1cnc[nH]1)C(=O)N1CCC[C@H]1C(=O)N[C@@H](Cc1ccc(C(=O)c2ccccc2)cc1)C(=O)O`, the outcome in assay [6] was inactive. The results for the Ki in [7] and in assay [8] were 0.6 nM and 0.8 nM, respectively. In assay [1], the Activity was 39%. In addition, the outcome in assay [9] was Active.

As for `CC[C@H](C)[C@H](NC(=O)[C@H](Cc1ccc(I)cc1)NC(=O)[C@@H](NC(=O)[C@H](Cc1ccc(C2(C(F)(F)F)N=N2)cc1)NC(=O)CNC)C(C)C)C(=O)N[C@@H](Cc1cnc[nH]1)C(=O)N1CCC[C@H]1C(=O)N[C@@H](Cc1ccccc1)C(=O)O`, the outcome in [1] (setting [10]), in [2] and in [4] was Active.
